The record followed here is paper PMC3511273, “Identification of PPARgamma Partial Agonists of Natural Origin (I): Development of a Virtual Screening Procedure and In Vitro Validation” (PLoS ONE, 2012).

The first assay deals with T1, PPARγ ligand-binding domain (PPARγ LBD) (Homo sapiens, UniProt P37231).
T1 construct: gene PPARG
T1 sequence (P37231 238-505 limits assumed): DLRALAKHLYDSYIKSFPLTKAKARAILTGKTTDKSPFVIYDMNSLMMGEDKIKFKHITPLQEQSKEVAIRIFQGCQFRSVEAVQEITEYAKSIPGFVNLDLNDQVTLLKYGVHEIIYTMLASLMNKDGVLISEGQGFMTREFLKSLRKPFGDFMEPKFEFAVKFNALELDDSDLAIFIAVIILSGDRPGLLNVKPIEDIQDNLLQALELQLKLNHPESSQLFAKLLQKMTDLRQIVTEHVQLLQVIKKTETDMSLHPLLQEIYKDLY
Kind of assay: fluorescence polarization competition (PolarScreen PPARγ Competitor Assay Green). The note with it: displacement of fluorescent PPARγ ligand; ex 485 nm, em 535 nm; unreliable. For orientation: Polarisation of emitted light reports the rotation of a fluorescent probe.
For the molecule `Cc1ccc(C2(CC(=O)O)CCOC(C)(C)C2)cc1` (stereo not drawn) [C2, ZINC00201868], the IC50 is over 8000 µM.
Same read-out and setting: next, `Cc1oc2c(C)c3oc(=O)c(CC(=O)N4CCC(C(=O)O)CC4)c(C)c3cc2c1C` [C6, ZINC02156886]: over 8000 µM; `COc1ccc(C(O)=C2C(=O)C(=O)N(Cc3cccnc3)C2c2ccc(O)cc2)c(C)c1` (stereo not drawn) [C3, ZINC00914339]: over 8000 µM.

The same assay, now with this note: read-out: Binding affinityIC50.
In the case of `Cc1cc(C)c2c(O)nn(C3CCOC(C)(C)C3)c2n1` (stereo not drawn) [C8, ZINC04040746], the IC50 turned out to be 460 µM.
The same measure, in the same setting: next, `CC(C)C[C@H](NC(=O)OCC1c2ccccc2-c2ccccc21)C(=O)O` [FMOC, reference compound]: 18.5 µM; `C=C(C)COc1ccc2oc(-c3ccccc3)c(C(=O)O)c2c1` [C1, ZINC00083676]: 12.4 µM.
Same read-out and setting: next, `CC(C)C(NC(=O)C(Cc1ccccc1)n1c(=O)[nH]c2ccccc2c1=O)C(=O)O` (stereo not drawn) [C5, ZINC02128851]: 1000 µM; `Cc1ccc(C(c2ccc(C)o2)c2ccccc2C(=O)O)o1` [C7, ZINC03846929]: 252 µM.
Still for that read-out and setting: next, `CC1(C)SC2c3ccccc3C(=O)N2C1C(=O)NC(Cc1ccccc1)C(=O)O` (stereo not drawn) [C9, ZINC04085288]: 585 µM.
